The test concerns protein expression of cyclin D1, c-myc, ABC, total β-catenin. As to the kind of experiment: Western blot analysis in SW480 cells. The class given is cell-based. As to conditions: SW480, 24 h, FIG. 3. Here is the method:
Protein expression levels of cyclin D1, c-myc, the active form of β-catenin (ABC), and total β-catenin in SW480 cells were examined by Western blot analysis (FIG. 3). […] Western blotting. SW480 cells at 1×10^6 cells/[…] were treated with different concentrations of 4 for 24 h. Cells were lysed in buffer containing 50 mM Tris (pH 7.4), 150 mM NaCl, 1% Nonidet P-40, 0.5% sodium deoxycholate, 0.1% SDS, and protease inhibitors. After centrifugation at 12,000 rpm for 20 min at 4° C., the supernatant was loaded onto an 8% SDS polyacrylamide gel for electrophoretic analysis. Separated proteins were transferred onto nitrocellulose membranes for immunoblot analysis. The antibodies against total β-catenin (610153, BD Biosciences, most of which is phosphorylated β-catenin and represents the E-cadherin bound pool), the active form of β-catenin (ABC, 05-665, EMD Millipore, dephosphorylated at positions S37 and T41 of β-catenin), cyclin D1 (sc-853, Santa Cruz Biotechnology, Inc.), c-myc (D84C12, Cell Signaling), and β-tubulin (sc-55529, Santa Cruz Biotechnology, Inc) were incubated with the membranes overnight at 4° C. respectively. IRDye 680LT goat anti-mouse IgG (827-11080, LiCOR) or IRDye 800CW goat anti-rabbit IgG (827-08365, LiCOR) was used as the secondary antibody. The images were detected by the Odyssey Infrared Imaging System (LiCOR). Experiments were performed in duplicate.
A general note: A western blot detects proteins with antibodies after separation by electrophoresis.

From US20220411414A1, “INHIBITORS FOR THE B-CATENIN/B-CELL LYMPHOMA 9 (BCL9) PROTEIN-PROTEIN INTERACTION” (H. LEE MOFFITT CANCER CENTER AND RESEARCH INSTITUTE, INC., priority 2018, published 2022) come the findings set out here.

In the case of `Cl.Cl.O=C(Nc1ccc(O[C@@H]2CCNC2)c(-c2cccc(-c3nn[nH]n3)c2)c1)c1ccc(O[C@H]2CCNC2)c(-c2ccc(F)c(F)c2)c1` [Compound 4, 3′,4′-difluoro-6-(((S)-pyrrolidin-3-yl)oxy)-N-(6-(((R)-pyrrolidin-3-yl)oxy)-3′-(2H-tetrazol-5-yl)-[1,1′-biphenyl]-3-yl)-[1,1′-biphenyl]-3-carboxamide dihydrochloride], the “E-cadherin-bound β-catenin (total β-catenin)” value is reported as “had no effect”, the “activated β-catenin (ABC) in the cell nucleus” value is “reduced”, the “protein expression level of c-myc” value is “significantly reduced” and the “protein expression level of cyclin D1” value is recorded as “significantly reduced”.
